Reference: patent US20260159512A1, “BCAT2 INHIBITORS” (AGIOS PHARMACEUTICALS, INC., priority 2021, published 2026)
pIC50: −log10 of the molar value.

Key:
BCAT2 [1] = biological target: T1, BCAT2 (Homo sapiens, UniProt O15382); assay: BCAT2 in vitro cell inhibition using engineered A549 cells (KMV cell assay, 13C6-KMV by LC-MS/MS); type: cell-based; design: The result was an engineered A549 cell line that expressed endogenous BCAT2; endogenous in cells; host or cells: A549 cells with MUT and BCAT1 knocked out by CRISPR/CAS9; key to BCAT2 Cell Inhibition: A: less than or equal to 0.100 μM; B: greater than 0.100 and less than or equal to 0.500 μM; C: greater than 0.500 and less than or equal to 1.000 μM; d: greater than 1.000 μM; E: no fit; conditions: average where tested multiple times
T1 sequence (O15382 28-392): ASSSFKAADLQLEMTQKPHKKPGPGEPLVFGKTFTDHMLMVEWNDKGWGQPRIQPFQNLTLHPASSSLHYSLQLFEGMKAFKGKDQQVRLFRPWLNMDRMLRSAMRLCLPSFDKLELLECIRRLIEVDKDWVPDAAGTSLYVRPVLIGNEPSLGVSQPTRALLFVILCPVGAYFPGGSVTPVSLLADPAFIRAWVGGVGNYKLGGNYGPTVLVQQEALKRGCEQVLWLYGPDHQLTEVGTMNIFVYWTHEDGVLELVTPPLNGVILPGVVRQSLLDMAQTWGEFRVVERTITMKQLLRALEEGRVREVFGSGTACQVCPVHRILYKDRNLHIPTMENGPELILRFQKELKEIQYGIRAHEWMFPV

BCAT2 [2] = biological target: T1, BCAT2; assay: BCAT2 in vitro enzyme inhibition assay (resazurin/diaphorase-coupled fluorescence); type: biochemical; design: key to BCAT2 Enzyme Inhibition: A: less than or equal to 0.100 μM; B: greater than 0.100 and less than or equal to 0.500 μM; C: greater than 0.500 and less than or equal to 1.000 μM; d: greater than 1.000 μM; E: no fit; conditions: average where tested multiple times
In short: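 Coupled fluorescence readout: glutamate formed from L-leucine/α-ketoglutarate transamination drives GDH/NAD/diaphorase reduction of resazurin (Ex 540/Em 590). Human BCAT2 was first exposed 1 h at room temperature to compound, top final 100 μM in 3-fold, 10-point series; substrate reaction ran 1 h before SDS quench, in technical duplicate with DMSO max and enzyme-free min controls.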

Row | Compound | BCAT2 Cell Inhibition (BCAT2 [1]) | pIC50 (BCAT2 [2]) | pIC50 (BCAT2 [1]) | BCAT2 Enzyme Inhibition (BCAT2 [2])
1 | CC(C)Cc1nc2cnc(N3CCC[C@@H]3C#N)cc2n1[C@@H]1CCC[C@H](NC(=O)c2ncc(Cl)s2)C1 [Example 310, 5-chloro-N-((1S,3R)-3-(6-((R)-2-cyanopyrrolidin-1-yl)-2-isobutyl-1H-imidazo[4,5-c]pyridin-1-yl)cyclohexyl)thiazole-2-carboxamide] | E | < 6.00 | – | –
2 | CC(C)Cc1nc2cnc(-c3ccccc3CC#N)cc2n1[C@@H]1CCC[C@H](NC(=O)c2ncc(Cl)s2)C1 [Example 333, 5-chloro-N-((1S,3R)-3-(6-(2-(cyanomethyl)phenyl)-2-isobutyl-1H-imidazo[4,5-c]pyridin-1-yl)cyclohexyl)thiazole-2-carboxamide] | E | < 6.00 | – | –
3 | N#Cc1ccc(-c2nc3cnc(-c4nc[nH]n4)cc3n2[C@@H]2CCC[C@H](NC(=O)c3ccc(Cl)s3)C2)c(F)c1 [Example 353, 5-chloro-N-((1S,3R)-3-(2-(4-cyano-2-fluorophenyl)-6-(1H-1,2,4-triazol-3-yl)-1H-imidazo[4,5-c]pyridin-1-yl)cyclohexyl)thiophene-2-carboxamide] | – | < 6.00 | < 6.00 | –
4 | COC(=O)N[C@H](c1nc2cnc(-c3nc[nH]n3)cc2n1[C@@H]1CCC[C@H](NC(=O)c2ncc(Cl)s2)C1)C(C)C [Example 370, methyl ((S)-1-(1-((1R,3S)-3-(5-chlorothiazole-2-carboxamido)cyclohexyl)-6-(1H-1,2,4-triazol-3-yl)-1H-imidazo[4,5-c]pyridin-2-yl)-2-methylpropyl)carbamate] | E | < 6.00 | – | –
5 | COC(=O)N[C@@H](c1nc2cnc(-c3nc[nH]n3)cc2n1[C@@H]1CCC[C@H](NC(=O)c2ncc(Cl)s2)C1)C(C)C [Example 371, methyl ((R)-1-(1-((1R,3S)-3-(5-chlorothiazole-2-carboxamido)cyclohexyl)-6-(1H-1,2,4-triazol-3-yl)-1H-imidazo[4,5-c]pyridin-2-yl)-2-methylpropyl)carbamate] | E | < 6.00 | – | –
6 | O=C(N[C@H]1CCC[C@@H](n2c(-c3ccccc3F)nc3cnc(-c4ncnn4C(F)F)cc32)C1)c1ncc(Cl)s1 [Example 376, 5-chloro-N-((1S,3R)-3-(6-(1-(difluoromethyl)-1H-1,2,4-triazol-5-yl)-2-(2-fluorophenyl)-1H-imidazo[4,5-c]pyridin-1-yl)cyclohexyl)thiazole-2-carboxamide] | E | 6.00 to 6.30 | – | –
7 | O=C(N[C@H]1CCC[C@@H](n2c(-c3ccccc3F)nc3cnc(-c4nncn4C(F)F)cc32)C1)c1ncc(Cl)s1 [Example 377, 5-chloro-N-((1S,3R)-3-(6-(4-(difluoromethyl)-4H-1,2,4-triazol-3-yl)-2-(2-fluorophenyl)-1H-imidazo[4,5-c]pyridin-1-yl)cyclohexyl)thiazole-2-carboxamide] | – | 6.00 to 6.30 | < 6.00 | –
8 | CC(C)(C)Cc1nc2cnc(-n3nccn3)cc2n1[C@H]1CCC[C@@H](NC(=O)c2ccc(Cl)s2)[C@@H]1O [Example 388, 5-chloro-N-((1R,2S,3S)-2-hydroxy-3-(2-neopentyl-6-(2H-1,2,3-triazol-2-yl)-1H-imidazo[4,5-c]pyridin-1-yl)cyclohexyl)thiophene-2-carboxamide] | E | < 6.00 | – | –
9 | CC(C)Cc1nc2cnc(-c3cccc(C#N)n3)cc2n1[C@H]1CCC[C@@H](NC(=O)c2ncc(Cl)s2)[C@@H]1O [Example 391, 5-chloro-N-((1R,2S,3S)-3-(6-(6-cyanopyridin-2-yl)-2-isobutyl-1H-imidazo[4,5-c]pyridin-1-yl)-2-hydroxycyclohexyl)thiazole-2-carboxamide] | E | < 6.00 | – | –
10 | COc1cccc(F)c1-c1nc2cnc(-c3nc[nH]n3)cc2n1[C@H]1CCCC[C@@H](NC(=O)c2ccc(Cl)s2)[C@@H]1O [Example 406, 5-chloro-N-((1R,2S,3S)-3-(2-(2-fluoro-6-methoxyphenyl)-6-(1H-1,2,4-triazol-3-yl)-1H-imidazo[4,5-c]pyridin-1-yl)-2-hydroxycycloheptyl)thiophene-2-carboxamide] | E | 6.00 to 6.30 | – | –
11 | CO[C@@H]1C[C@@H](NC(=O)c2ncc(Cl)s2)C[C@@H](n2c(CC(C)C)nc3cnc(-n4cncn4)cc32)C1 [Example 418, 5-chloro-N-((1S,3R,5R)-3-(2-isobutyl-6-(1H-1,2,4-triazol-1-yl)-1H-imidazo[4,5-c]pyridin-1-yl)-5-methoxycyclohexyl)thiazole-2-carboxamide] | E | < 6.00 | – | –
12 | CO[C@@H]1C[C@@H](NC(=O)c2ncc(Cl)s2)C[C@@H](n2c(-c3ccccc3F)nc3cnc(N4CCC[C@H]4CO)cc32)C1 [Example 430, 5-chloro-N-((1S,3R,5R)-3-(2-(2-fluorophenyl)-6-((S)-2-(hydroxymethyl)pyrrolidin-1-yl)-1H-imidazo[4,5-c]pyridin-1-yl)-5-methoxycyclohexyl)thiazole-2-carboxamide] | – | < 6.00 | < 6.00 | –
13 | CO[C@H]1[C@@H](NC(=O)c2ncc(Cl)s2)CCC[C@H]1n1c(-c2ccccc2F)nc2cnc(-c3nc[nH]n3)cc21 [Example 433, 5-chloro-N-((1S,2S,3R)-3-(2-(2-fluorophenyl)-6-(1H-1,2,4-triazol-3-yl)-1H-imidazo[4,5-c]pyridin-1-yl)-2-methoxycyclohexyl)thiazole-2-carboxamide] | E | – | – | E

The next lines start with the values.

Row | BCAT2 Cell Inhibition (BCAT2 [1]) | pIC50 (BCAT2 [2]) | pIC50 (BCAT2 [1]) | BCAT2 Enzyme Inhibition (BCAT2 [2]) | Compound
14 | E | 6.00 to 6.30 | – | – | CC(C)C(F)(F)c1nc2cnc(-c3ccccn3)cc2n1[C@@H]1CCC[C@H](NC(=O)c2ncc(Cl)s2)C1 [Example 318, 5-chloro-N-((1S,3R)-3-(2-(1,1-difluoro-2-methylpropyl)-6-(pyridin-2-yl)-1H-imidazo[4,5-c]pyridin-1-yl)cyclohexyl)thiazole-2-carboxamide]
15 | – | 6.30 to 7.00 | < 6.00 | – | CC(C)Cc1nc2cnc(-n3cncn3)cc2n1[C@@H]1CCC[C@H](NC(=O)c2ncc(Cl)s2)C1 [Example 323, 5-chloro-N-((1S,3R)-3-(2-isobutyl-6-(1H-1,2,4-triazol-1-yl)-1H-imidazo[4,5-c]pyridin-1-yl)cyclohexyl)thiazole-2-carboxamide]
16 | E | 6.30 to 7.00 | – | – | CC(C)Cc1nc2cnc(-c3ccccc3C#N)cc2n1[C@@H]1CCC[C@H](NC(=O)c2ncc(Cl)s2)C1 [Example 335, 5-chloro-N-((1S,3R)-3-(6-(2-cyanophenyl)-2-isobutyl-1H-imidazo[4,5-c]pyridin-1-yl)cyclohexyl)thiazole-2-carboxamide]
17 | E | 6.30 to 7.00 | – | – | CC(C)Cc1nc2cnc(-n3cc(C(C)O)nn3)cc2n1[C@@H]1CCC[C@H](NC(=O)c2ncc(Cl)s2)C1 (stereo partly drawn) [Example 359, 5-chloro-N-((1S,3R)-3-(6-(4-(1-hydroxyethyl)-1H-1,2,3-triazol-1-yl)-2-isobutyl-1H-imidazo[4,5-c]pyridin-1-yl)cyclohexyl)thiazole-2-carboxamide]
18 | E | 6.00 to 6.30 | – | – | CC(=O)N[C@@H](c1nc2cnc(-c3nc[nH]n3)cc2n1[C@@H]1CCC[C@H](NC(=O)c2ncc(Cl)s2)C1)C(C)C [Example 369, N-((1S,3R)-3-(2-((R)-1-acetamido-2-methylpropyl)-6-(1H-1,2,4-triazol-3-yl)-1H-imidazo[4,5-c]pyridin-1-yl)cyclohexyl)-5-chlorothiazole-2-carboxamide]
19 | – | ≥ 7.00 | < 6.00 | – | CCn1c(CO)nn(-c2cc3c(cn2)nc(CC(C)C)n3[C@@H]2CCC[C@H](NC(=O)c3ccc(Cl)s3)C2)c1=O [Example 373, 5-chloro-N-((1S,3R)-3-(6-(4-ethyl-3-(hydroxymethyl)-5-oxo-4,5-dihydro-1H-1,2,4-triazol-1-yl)-2-isobutyl-1H-imidazo[4,5-c]pyridin-1-yl)cyclohexyl)thiophene-2-carboxamide]
20 | – | 6.30 to 7.00 | < 6.00 | – | CC(C)(C)Cc1nc2cnc(-c3ccccn3)cc2n1[C@H]1CCC[C@@H](NC(=O)c2ncc(Cl)s2)[C@@H]1O [Example 390, 5-chloro-N-((1R,2S,3S)-2-hydroxy-3-(2-neopentyl-6-(pyridin-2-yl)-1H-imidazo[4,5-c]pyridin-1-yl)cyclohexyl)thiazole-2-carboxamide]
21 | – | 6.30 to 7.00 | 6.00 to 6.30 | – | O=C(N[C@@H]1CCCC[C@H](n2c(-c3ccccc3F)nc3cnc(-c4nc[nH]n4)cc32)[C@H]1O)c1ccc(Cl)s1 [Example 404, 5-chloro-N-((1R,2S,3S)-3-(2-(2-fluorophenyl)-6-(1H-1,2,4-triazol-3-yl)-1H-imidazo[4,5-c]pyridin-1-yl)-2-hydroxycycloheptyl)thiophene-2-carboxamide]
